These results are taken from the supplement of paper PMC10307832.

Assay in all cases: relative viability (nuclei count vs DMSO), 5 days (fraction); higher = more cells survive
Compound in the test “Wnt-C59 + Phenformin”: CC1=NC=CC(=C1)C2=CC=C(C=C2)CC(=O)NC3=CC=C(C=C3)C4=CN=CC=C4 [Wnt-C59] + N=C(N)NC(=N)NCCc1ccccc1 [Phenformin] (partner 250 µM)
The method in brief:
(§1)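 For relative viability, nuclei counts in treated wells were divided by those in vehicle wells. Lung cancer cell lines had been pin-tool dosed in 1536-well plates the day after seeding and cultured for 5 days, then fixed and stained in one step (final 0.05% Triton X-100, 1% formaldehyde, 1 ug/ml Hoechst) and imaged at 4×. Doses were one drug alone or a fixed anchor-drug dose plus five library-drug doses (not always all listed) in √10 steps, and values are duplicate-plate medians.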

Compound in the test “Wnt-C59 + Olaparib”: CC1=NC=CC(=C1)C2=CC=C(C=C2)CC(=O)NC3=CC=C(C=C3)C4=CN=CC=C4 [Wnt-C59] + O=C(c1cc(Cc2n[nH]c(=O)c3ccccc23)ccc1F)N1CCN(C(=O)C2CC2)CC1 [Olaparib] (partner 8 µM)
The method in brief: as §1

Compound in the test “Lapatinib + Trametinib”: CS(=O)(=O)CCNCc1ccc(-c2ccc3ncnc(Nc4ccc(OCc5cccc(F)c5)c(Cl)c4)c3c2)o1 [Lapatinib] + CC(=O)Nc1cccc(-n2c(=O)n(C3CC3)c(=O)c3c(Nc4ccc(I)cc4F)n(C)c(=O)c(C)c32)c1 [Trametinib] (partner 0.02 µM)
The method in brief:
as §1

Compound in the test “Lapatinib + Tozasertib”: CS(=O)(=O)CCNCc1ccc(-c2ccc3ncnc(Nc4ccc(OCc5cccc(F)c5)c(Cl)c4)c3c2)o1 [Lapatinib] + Cc1cc(Nc2cc(N3CCN(C)CC3)nc(Sc3ccc(NC(=O)C4CC4)cc3)n2)n[nH]1 [Tozasertib] (partner 0.1 µM)
The method in brief: as §1

Consider UMC-11, for which the relative viability was 0.305 in the test with Wnt-C59 + Phenformin (first compound 0.001 µM); 0.282 in the test with Wnt-C59 + Phenformin (first compound 0.01 µM); 0.328 with Wnt-C59 + Phenformin (first compound 0.03162 µM); 0.32 with Wnt-C59 + Phenformin (first compound 0.1 µM); 0.793 in the test with Wnt-C59 + Olaparib (first compound 0.001 µM); 0.378 with Wnt-C59 + Olaparib (first compound 0.01 µM). The relative viability turned out to be 0.479 in the test with Wnt-C59 + Olaparib (first compound 0.03162 µM); 0.415 in the test with Wnt-C59 + Olaparib (first compound 0.1 µM); 0.293 with Lapatinib + Trametinib (first compound 0.02 µM); 0.617 with Lapatinib + Trametinib (first compound 0.06325 µM); 0.69 in the test with Lapatinib + Trametinib (first compound 0.2 µM); 0.76 with Lapatinib + Trametinib (first compound 0.6325 µM). Moreover, the relative viability in the test with Lapatinib + Trametinib (first compound 2 µM) is 0.676; in the test with Lapatinib + Tozasertib (first compound 0.06325 µM), 0.211; with Lapatinib + Tozasertib (first compound 0.2 µM), 0.209; in the test with Lapatinib + Tozasertib (first compound 0.6325 µM), 0.184; with Lapatinib + Tozasertib (first compound 2 µM) it was 0.211.
